Reference: PubChem BioAssay AID1963447 (Molecular Pharmacology Branch, DTP, NCI, 2024)
One block for each compound: values may come before it.

Test system: 885512-296-R-J2-PDC complex spheroid growth, % test/control
Experiment: Anticancer human tumor 885512-296-R-J2-PDC patient-derived breast carcinoma cell line growth inhibition [Asc]
Details: for IC50: curve of first compound; for viability, T/C: stronger effect = lower value
Method: Multicellular complex tumor spheroid response to apoptosis pathway targeting inhibitors Alrizomadlin, Pelcitoclax, and Dasminapant in combination with a variety of drugs and investigational agents in selected tumor cell lines
The MDM2 inhibitor alrizomadlin, the Bcl-2/Bcl-xL inhibitor pelcitoclax, and the IAPs inhibitor dasminapant were evaluated both individually and in combination with standard of care and investigational anticancer small molecules within a complex spheroid model of solid tumors. . Complex spheroids include a stromal component modeled by human endothelial cells (HUVEC) and fibroblasts modeled by human mesenchymal stem cells (MSCs). The concentration ranges selected for each drug and investigational agent were based upon clinically achievable concentrations if the clinical Cmax of the agent was known.
Compounds. The drugs and investigational agents: alrizomadlin (APG-115; NSC831270), pelcitoclax (APG-1252; NSC835773), dasminapant (APG-1387;NSC834197), TAK-243 (NSC785004), copanlisib (NSC809693), olaparib (NSC753686), talazoparib (NSC767125), cobimetinib (NSC 768068), eltanexor (KPT-8602, NSC 794443), abemaciclib (NSC 768073), sotorasib (NSC818433), adagrasib (NSC 831453), MRTX-1133 (NSC 836407), Iadademestat (ORY1001, NSC 806812), and RMC-4630 (NSC839698), were obtained from the NCI Developmental Therapeutics Program Chemical Repository. The FDA-approved anticancer drug set is available from the Developmental Therapeutics Program at https://dtp.cancer.gov/organization/dscb/obtaining/available plates.htm. […] The stock solutions were prepared in dimethyl sulfoxide (DMSO, Sigma-Aldrich, St. Louis, MO, cat. D2650) at 800-fold the tested concentration and stored at -70 degrees C prior to their use. All drugs and investigational agents were tested over a range starting from a high concentration at or near the clinical Cmax and decreasing in half-log increments. If the clinical Cmax for an agent had not been determined, the highest concentration tested was 10 microM.
The patient-derived cancer (PDC) cell lines include five colon adenocarcinomas: 186277-243-T-J2-PDC, 616215-338-R-J1-PDC, 439559-082-T-J2-PDC, 463943-066-T-J2-PDC, and 519858-162-T-J1-PDC; three pancreatic carcinomas: 323965-272-R-J2-PDC, 521955-158-R6-J3-PDC, and 521955-158-R2-J5-PDC; two uterine sarcomas: 327498-152-R-J2-PDC and 993429-296-R-J1-PDC; two rhabdomyosarcomas: 755483-174-R-J1-PDC and 772245-204-R-J1-PDC; two soft tissue sarcomas: 126254-015-R-J1-PDC and 494315-158-R-J1-PDC; two malignant fibrous histiocytomas: 317291-083-R-J1-PDC and 596521-263-R-J1-PDC; two breast carcinomas: 171881-019-R-J1-PDC and 885512-296-R-J2-PDC; and one ovarian carcinoma: 6556581-035-R-J-PDC were obtained from the NCI PDMR, (https://pdmr.cancer.gov). The established cell lines HSSY-2 synovial sarcoma (RRID:CVCL 8719), SYO-1 synovial sarcoma (RRID:CVCL_7146), MPNST malignant peripheral neural sheath tumor were obtained from the Sloan Kettering Institute. The following established cell lines were purchased from the American Type Culture Collection (ATCC, Manassas, VA), Sor the received from the NCI repository:, PANC-1 pancreatic carcinoma (CRL-1469, RRID:CVCL_0480), OVCAR-5 ovarian carcinoma (RRID:CVCL_1628), OVCAR-8 ovarian carcinoma (RRID:CVCL_1629), , MCF-7 breast carcinoma (CRL-12584, RRID:CVCL_0031), MDA-MB-231 breast carcinoma (CRL-12532, RRID:CVCL_0062), NCI-H1876 small cell lung carcinoma (CRL-5902, RRID:CVCL_1503), NCI-H510A small cell lung carcinoma (HTB-184, RRID:CVCL_1565), NCI-H1417 (CRL-5869, RRID:CVCL_1469), and NCI-H196 small cell lung carcinoma (CRL-5823, RRID:CVCL_1509). Dr. Peter Houghton (Greehey Children's Cancer Research Institute, University of Texas Health Science Center, San Antonio, TX) provided Rh-18 rhabdomyosarcoma (RRID:CVCL_1659). Pooled donor human umbilical vein endothelial cells (HUVEC, Lonza, cat. CC-2519) and human mesenchymal stem cells (hMSC, Lonza, cat. PT-2501) were purchased from Lonza (Walkersville, MD).
Cell Culture. […]

[1] = second compound 0.03 µM, first compound 0.00316 µM
[2] = second compound 0.03 µM, first compound 0.01 µM
[3] = second compound 0.03 µM, first compound 0.0316 µM
[4] = second compound 0.03 µM, first compound 0.1 µM
[5] = second compound 0.0949 µM, first compound 0.00316 µM
[6] = second compound 0.0949 µM, first compound 0.01 µM
[7] = second compound 0.0949 µM, first compound 0.0316 µM
[8] = second compound 0.0949 µM, first compound 0.1 µM
[9] = second compound 0.3 µM, first compound 0.00316 µM
[10] = second compound 0.3 µM, first compound 0.01 µM
[11] = second compound 0.3 µM, first compound 0.0316 µM
[12] = second compound 0.3 µM, first compound 0.1 µM
[13] = second compound 0.949 µM, first compound 0.00316 µM
[14] = second compound 0.949 µM, first compound 0.01 µM
[15] = second compound 0.949 µM, first compound 0.0316 µM
[16] = second compound 0.949 µM, first compound 0.1 µM
[17] = second compound 3 µM, first compound 0.00316 µM
[18] = second compound 3 µM, first compound 0.01 µM
[19] = second compound 3 µM, first compound 0.0316 µM
[20] = second compound 3 µM, first compound 0.1 µM
[21] = second compound 0.03 µM, first compound 0.316 µM
[22] = second compound 0.03 µM, first compound 1 µM
[23] = second compound 0.0949 µM, first compound 0.316 µM
[24] = second compound 0.0949 µM, first compound 1 µM
[25] = second compound 0.3 µM, first compound 0.316 µM
[26] = second compound 0.3 µM, first compound 1 µM
[27] = second compound 0.949 µM, first compound 0.316 µM
[28] = second compound 0.949 µM, first compound 1 µM
[29] = second compound 3 µM, first compound 0.316 µM
[30] = second compound 3 µM, first compound 1 µM
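Also: spheroids exposed to compounds for seven days.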
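For viability, T/C in this document: 100% = DMSO vehicle control wells.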

IC50 (second compound 0.03 µM): 37.8 nM
IC50 (second compound 0.0949 µM): 54.2 nM
IC50 (second compound 0.3 µM): 21 nM
IC50 (second compound 0.949 µM): 23.5 nM
IC50 (second compound 3 µM): < 0.316 nM
SMILES: Cn1ncnc1[C@H]1c2n[nH]c(=O)c3cc(F)cc(c23)N[C@@H]1c1ccc(F)cc1 + CCN1C(C(=O)NC23CCC(C(=O)O)(CC2)CC3)C(c2cccc(Cl)c2F)C2(C(=O)Nc3cc(Cl)ccc32)C12CCCCC2
viability, T/C (second compound 0.03 µM, first compound 0.000316 µM): 88.7%
viability, T/C (second compound 0.03 µM, first compound 0.001 µM): 107%
viability, T/C [1]: 91.6%
viability, T/C [2]: 66.9%
viability, T/C [3]: 58%
viability, T/C [4]: 35.5%
viability, T/C (second compound 0.0949 µM, first compound 0.000316 µM): 91%
viability, T/C (second compound 0.0949 µM, first compound 0.001 µM): 101%
viability, T/C [5]: 93.3%
viability, T/C [6]: 76.2%
viability, T/C [7]: 57%
viability, T/C [8]: 43.1%
viability, T/C (second compound 0.3 µM, first compound 0.000316 µM): 80.5%
viability, T/C (second compound 0.3 µM, first compound 0.001 µM): 90.8%
viability, T/C [9]: 88%
viability, T/C [10]: 60%
viability, T/C [11]: 49.2%
viability, T/C [12]: 35.2%
viability, T/C (second compound 0.949 µM, first compound 0.000316 µM): 80.2%
viability, T/C (second compound 0.949 µM, first compound 0.001 µM): 72.6%
viability, T/C [13]: 63.1%
viability, T/C [14]: 60.5%
viability, T/C [15]: 47.7%
viability, T/C [16]: 35.3%
viability, T/C (second compound 3 µM, first compound 0.000316 µM): 43.9%
viability, T/C (second compound 3 µM, first compound 0.001 µM): 40.2%
viability, T/C [17]: 41.8%
viability, T/C [18]: 38.4%
viability, T/C [19]: 40.2%
viability, T/C [20]: 31.6%

IC50 (second compound 0.03 µM): 4710 nM
IC50 (second compound 0.0949 µM): 5650 nM
IC50 (second compound 0.3 µM): 5140 nM
IC50 (second compound 0.949 µM): 5090 nM
IC50 (second compound 3 µM): < 31.6 nM
SMILES: O=C(c1cc(Cc2n[nH]c(=O)c3ccccc23)ccc1F)N1CCN(C(=O)C2CC2)CC1 + CCN1C(C(=O)NC23CCC(C(=O)O)(CC2)CC3)C(c2cccc(Cl)c2F)C2(C(=O)Nc3cc(Cl)ccc32)C12CCCCC2
viability, T/C [3]: 80.5%
viability, T/C [4]: 118%
viability, T/C [21]: 116%
viability, T/C [22]: 92.7%
viability, T/C (second compound 0.03 µM, first compound 3.16 µM): 67.7%
viability, T/C (second compound 0.03 µM, first compound 10 µM): 17.6%
viability, T/C [7]: 98.8%
viability, T/C [8]: 116%
viability, T/C [23]: 107%
viability, T/C [24]: 90.2%
viability, T/C (second compound 0.0949 µM, first compound 3.16 µM): 79.5%
viability, T/C (second compound 0.0949 µM, first compound 10 µM): 22.9%
viability, T/C [11]: 93.3%
viability, T/C [12]: 97.8%
viability, T/C [25]: 89.9%
viability, T/C [26]: 98.1%
viability, T/C (second compound 0.3 µM, first compound 3.16 µM): 69.5%
viability, T/C (second compound 0.3 µM, first compound 10 µM): 23.6%
viability, T/C [15]: 72%
viability, T/C [16]: 81.1%
viability, T/C [27]: 76%
viability, T/C [28]: 77.1%
viability, T/C (second compound 0.949 µM, first compound 3.16 µM): 66.8%
viability, T/C (second compound 0.949 µM, first compound 10 µM): 25.3%
viability, T/C [19]: 45.1%
viability, T/C [20]: 54.7%
viability, T/C [29]: 42.6%
viability, T/C [30]: 47.8%
viability, T/C (second compound 3 µM, first compound 3.16 µM): 47.2%
viability, T/C (second compound 3 µM, first compound 10 µM): 23.5%

IC50 (second compound 0.03 µM): 127 nM
IC50 (second compound 0.0949 µM): 148 nM
IC50 (second compound 0.3 µM): 132 nM
IC50 (second compound 0.949 µM): 55.3 nM
IC50 (second compound 3 µM): < 3.16 nM
SMILES: O=C(c1ccc(F)c(F)c1Nc1ccc(I)cc1F)N1CC(O)([C@@H]2CCCCN2)C1 + CCN1C(C(=O)NC23CCC(C(=O)O)(CC2)CC3)C(c2cccc(Cl)c2F)C2(C(=O)Nc3cc(Cl)ccc32)C12CCCCC2
viability, T/C [1]: 100%
viability, T/C [2]: 74.2%
viability, T/C [3]: 63.5%
viability, T/C [4]: 62%
viability, T/C [21]: 39.4%
viability, T/C [22]: 18.7%
viability, T/C [5]: 89.4%
viability, T/C [6]: 89.3%
viability, T/C [7]: 66.5%
viability, T/C [8]: 57.1%
viability, T/C [23]: 39.1%
viability, T/C [24]: 17.5%
viability, T/C [9]: 83.5%
viability, T/C [10]: 80.6%
viability, T/C [11]: 65.7%
viability, T/C [12]: 55.2%
viability, T/C [25]: 36.8%
viability, T/C [26]: 18.1%
viability, T/C [13]: 67.7%
viability, T/C [14]: 53.4%
viability, T/C [15]: 54%
viability, T/C [16]: 48.8%
viability, T/C [27]: 33.9%
viability, T/C [28]: 17.5%
viability, T/C [17]: 42.7%
viability, T/C [18]: 35.9%
viability, T/C [19]: 31.4%
viability, T/C [20]: 35.4%
viability, T/C [29]: 22.2%
viability, T/C [30]: 14.7%
